In patent publication US20220184222A1, “BICYCLE TOXIN CONJUGATES AND USES THEREOF” (BicycleTx Limited, priority 2019, published 2022):
Starred links: 1 amine or outer side, 2 acyl side, 3 side chain; linkers in the order of their positions; H or OH if unused. Non-standard residues stand in square brackets, D forms with d. Residues, ends and D or L forms follow the SMILES beside them. *: point of attachment. Dolaproine = CO[C@@H]([C@@H]1CCCN1)[C@@H](C)C(=O)O; Dil = CC[C@H](C)[C@H](NC)[C@@H](CC(=O)O)OC; PABC = O=C(OCc1ccc(N[*:1])cc1)[*:2]; X1 = O=C(CCCC(=O)*)ON1C(=O)CCC1=O; X2 = C[C@@H](N*)[C@@H](O)c1ccccc1; Cit = NC(=O)NCCC[C@H](N)C(=O)O; NMeV = CN[C@H](C(=O)O)C(C)C

Columns and labels:
Panc033 = experiment: PDAC PDX Panc033 xenograft efficacy (Example 5); assay type: in vivo, NSG mice; details: 3 mg/kg intravenously weekly, 4-week treatment period
Experimental: BT5528 and Vehicle were prepared as described in the examples above, and tested in treatment of Pancreatic Ductal Adenocarcinoma (PDAC) in PDX models. PDX models effectively capture patient responses to oncology therapy in a heterogeneous cohort of patients with solid tumors with 80-100% correlation between the PDX and patient response (Izumchenko et al. 2017)
Pancreatic ductal adenocarcinoma patient derived xenograft tumors (PDAC PDX; Panc033 and Panc163) were implanted subcutaneously from source tumors into the flank of NSG mice. Tumor bearing animals were randomized to receive intravenously a weekly dosing of vehicle or 3 mg/kg BT5528. Tumor sizes were monitored by caliper measurements.

CTG-2393 = experiment: Champions TumorGraft NSCLC PDX efficacy, model CTG-2393; assay type: in vivo, Mus musculus
Experimental: (§1) Mice were implanted subcutaneously into the left flank with tumor fragments from one of the various models. After tumors grew to an average of 150-300 mm^3, mice were treated by IV administration Q7Dx4 (n=2) with vehicle or 3 mg/kg of BT5528. Effects on tumor growth were evaluated by measuring percent tumor growth inhibition (% TGI), and the number of complete responders (CR), partial responders (PR), and tumor-free survivors (TFS). Tolerability was assessed by body weight loss, lethality, and clinical signs of adverse treatment-related side effects. Tumor volumes and body weights were measured twice a week.
(§2) Dosing solutions of BT5528 […] were pre-formulated. These dosing solutions were stored at −80° C. in the dark. On each day of dosing, a frozen aliquot of each test agent was thawed, stored at 2-8° C. and used for dosing.
(§3) The animals used in this study are described below: • Species: Mus musculus • Strain: Athymic Nude-Foxn1^nu (immune-compromised) • Source: Envigo (Indianapolis, Ind., USA) • Number of animals per group: 2 • Age and sex: At least 6-8 weeks of age at start of dosing, female • Weight: At least 18 grams at start of dosing • Acclimation period: 3 days
(§4) Stock mice were implanted with tumor cells from Champions TumorGraft® models CTG-0160, CTG-0170, CTG-0178, CTG-0192, CTG-0363, CTG-0808, CTG-0838, CTG-0848, CTG-1212, CTG-1502, CTG-1535, CTG-2011, CTG-2393, CTG-2539 or CTG-2540. After the tumors reached 1000-1500 mm^3, they were harvested and the tumor fragments (approximately 5×5×5 mm^3) were implanted SC in the left flank of the female study mice. Each animal was implanted with a specific passage lot and documented. Tumor growth was monitored twice a week using digital calipers and the tumor volume (TV) was calculated using the formula (0.52×[length×width^2]). When the TV reached an average volume of 150-300 mm^3, animals were matched by tumor size and assigned into Vehicle Control and treatment groups (n=2/group) and dosing was initiated on Day 0. After the initiation of dosing on Day 0, animals were weighed twice per week using a digital scale and TV was measured twice per week and also on the final day of study. The study was completed when the mean tumor volume of Vehicle Control reached 1500 mm^3 or up to Day 60, whichever occurred first.
(§5) Beginning on Day 0, animals were observed daily and weighed twice weekly using a digital scale; data including individual and mean gram weights, mean percent weight change versus Day 0 (% vD0) were recorded for each group and % vD0 plotted at study completion. […] Treatment resulting in a mean % vD0>20% and/or >10% mortality was considered above the maximum tolerated dose. Maximum mean % vD0 (weight nadir) for each treatment group was reported at study completion.
(§6) Inhibition of tumor growth was determined by calculating the percent TGI (100%×[1−(final MTV−initial MTV of a treated group)/(final MTV−initial MTV of the control group)]). Treatment started on Day 0.
(§7) Additional endpoints used to evaluate efficacy were: the number of complete responders (CR), partial responders (PR), and tumor-free survivors (TFS). PRs were considered exclusive of CRs, as were TFS.
(§8) Statistical analyses of anti-tumor efficacy were performed using one-way ANOVA followed by Dunnett's multiple comparisons test (GraphPad Prism version 8.2.0). Significant p-values=<0.05.
Animals were dosed according to the schedule on Table 7-1. The study was terminated on Day 28.

CTG-0808 = experiment: Champions TumorGraft NSCLC PDX efficacy, model CTG-0808; assay type: in vivo, Mus musculus
Experimental: as §1, §2, §3, §4, §5, §6, §7, §8
Animals were dosed according to the schedule on Table 7-1. The Vehicle Control reached endpoint on Day 14 and the study was terminated on Day 28.

CTG-0848 = experiment: Champions TumorGraft NSCLC PDX efficacy, model CTG-0848; assay type: in vivo, Mus musculus
Experimental: as §1, §2, §3, §4, §5, §6, §7, §8
(§9) Animals were dosed according to the schedule on Table 7-1. The study was terminated on Day 27.

CTG-1212 = experiment: Champions TumorGraft NSCLC PDX efficacy, model CTG-1212; assay type: in vivo, Mus musculus
Experimental: as §1, §2, §3, §4, §5, §6, §7, §8, §9

[1] = system: 15 low-passage Champions TumorGraft models of human non-small cell lung cancer; experiment: Panel of 15 NSCLC patient derived tumor xenografts (Champions PDX indication screen), overall; assay type: in vivo, Mus musculus; details: weekly 3 mpk
Experimental: This study was conducted to evaluate the in vivo antitumor activity of BT5528 as monotherapy in 15 low-passage Champions TumorGraft® models.
as §1, with “week. […]” for “week.”
Stock mice were implanted with tumor cells from Champions TumorGraft® models CTG-0160, CTG-0170, CTG-0178, CTG-0192, CTG-0363, CTG-0808, CTG-0838, CTG-0848, CTG-1212, CTG-1502, CTG-1535, CTG-2011, CTG-2393, CTG-2539 or CTG-2540. […] Tumor growth was monitored twice a week using digital calipers and the tumor volume (TV) was calculated using the formula (0.52×[length×width^2]). […] After the initiation of dosing on Day 0, animals were weighed twice per week using a digital scale and TV was measured twice per week and also on the final day of study. […]

[2] = CTG-2393, 3 mg/kg IV Q7Dx4, Day 0-28
[3] = CTG-0808, 3 mg/kg IV Q7Dx4, Day 0-28
[4] = CTG-0848, 3 mg/kg IV Q7Dx4, Day 0-27
[5] = CTG-1212, 3 mg/kg IV Q7Dx4, Day 0-27

With `CC[C@H](C)[C@@H]([C@@H](CC(=O)N1CCC[C@H]1[C@H](OC)[C@@H](C)C(=O)N[C@H](C)[C@@H](O)c1ccccc1)OC)N(C)C(=O)[C@@H](NC(=O)[C@H](C(C)C)N(C)C(=O)OCc1ccc(NC(=O)[C@H](CCCNC(N)=O)NC(=O)[C@@H](NC(=O)CCCC(=O)ON2C(=O)CCC2=O)C(C)C)cc1)C(C)C` [BT5528] (X1-V[Cit][PABC][NMeV]V[Dil][Dolaproine]-X2) the “anti-tumor activity (tumor size by caliper)” value (Panc033) was “significant anti-tumor activity from reduced tumor growth rate to decreasing tumor volumes”, the “MTV (mean tumor volume)” value (CTG-2393; 3 mg/kg IV Q7Dx4, Day 28) was 158±25 mm^3 and the TGI (CTG-2393; 3 mg/kg IV Q7Dx4, Day 28) was 107%. For the same compound, the “# CR (complete responders)” value (CTG-2393; [2]) was 0/0/0, the “# PR (partial responders)” value (CTG-2393; [2]) was 0/0/0 and the “# TFS (tumor-free survivors)” value (CTG-2393; [2]) was 0/0/0. For the same compound, the “% TGI” value (CTG-2393; CTG-2393, 3 mg/kg IV Q7Dx4, Day 28) was 107%, the “Day 28 Tumor Volume Mean TV ± SEM” value (CTG-2393; CTG-2393, BT5528 3 mg/kg IV Q7Dx4, Day 28, n=2) was 158 ± 25 mm^3 and the “MTV (mean tumor volume)” value (CTG-0808; 3 mg/kg IV Q7Dx4, Day 14) was 541±4 mm^3. For the same compound, the TGI (CTG-0808; 3 mg/kg IV Q7Dx4, Day 14) was 76%, the “# CR (complete responders)” value (CTG-0808; [3]) was 0/0/0 and the “# PR (partial responders)” value (CTG-0808; [3]) was 0/0/0. For the same compound, the “# TFS (tumor-free survivors)” value (CTG-0808; [3]) was 0/0/0, the “% TGI” value (CTG-0808; CTG-0808, 3 mg/kg IV Q7Dx4, Day 14) was 76% and the “Day 14 Tumor Volume Mean TV ± SEM” value (CTG-0808; CTG-0808, BT5528 3 mg/kg IV Q7Dx4, Day 14, n=2) was 541 ± 4 mm^3. For the same compound, the “MTV (mean tumor volume)” value (CTG-0848; 3 mg/kg Q7Dx4, Day 27) was 512±113 mm^3, the TGI (CTG-0848; 3 mg/kg Q7Dx4, Day 27) was 56% and the “# CR (complete responders)” value (CTG-0848; [4]) was 0/0/0. For the same compound, the “# PR (partial responders)” value (CTG-0848; [4]) was 0/0/0, the “# TFS (tumor-free survivors)” value (CTG-0848; [4]) was 0/0/0 and the “% TGI” value (CTG-0848; CTG-0848, 3 mg/kg IV Q7Dx4, Day 27) was 56%. The “Day 27 Tumor Volume Mean TV ± SEM” value (CTG-0848; CTG-0848, BT5528 3 mg/kg IV Q7Dx4, Day 27, n=2) was 512 ± 113 mm^3, the “mean body weight loss” value (CTG-1212; 3 mg/kg IV Q7Dx4) was “minor mean body weight losses” and the “MTV (mean tumor volume)” value (CTG-1212; 3 mg/kg IV Q7Dx4, Day 27) was 128±53 mm^3. The TGI (CTG-1212; 3 mg/kg IV Q7Dx4, Day 27) was 112%, the “# CR (complete responders)” value (CTG-1212; [5]) was 0/0/0 and the “# PR (partial responders)” value (CTG-1212; [5]) was 0/0/0. For the same compound, the “# TFS (tumor-free survivors)” value (CTG-1212; [5]) was 0/0/0, the “% TGI” value (CTG-1212; CTG-1212, 3 mg/kg IV Q7Dx4, Day 27) was 112% and the “Day 27 Tumor Volume Mean TV ± SEM” value (CTG-1212; CTG-1212, BT5528 3 mg/kg IV Q7Dx4, Day 27, n=2) was 128 ± 53 mm^3. For the same compound, the “models with tumor growth inhibition of 50% or more” value [1] was 10 out of 15.
